Consider 21 molecules from US8063071B2 (GlaxoSmithKline, LLC, priority 2007, dated 2011).

pIC50: −log10 of the molar value. Counter-ions that a name gives are not always drawn. Where only a bound is given, the exact number is not on record here.

Test [1] deals with human monocyte stimulated cytokine production (TNF-α). Put plainly: Monocyte assay (LPS-stimulated TNF-α production). Conditions: 24 h, 200 ng/mL LPS, TNF-α by ELISA. It is filed as cell-based. In short, it runs like this:
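TNF-α release was measured by ELISA after 24 hrs at 37 C. Cells were stimulated with 200 ng/mL E. coli LPS, with compound added 30 minutes beforehand (0.1% DMSO vehicle). Cells were Ficoll/MACS-isolated CD14+ human monocytes adhered at 1×10^6 cells/mL, and viability was checked by trypan blue.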
A general note: An ELISA detects its analyte on a solid surface through an enzyme-linked reagent.

Test [2] concerns the target T1, Recombinant human IKKβ (residues 1-737) (Homo sapiens, UniProt O14920).
T1 construct: Recombinant human IKKβ (residues 1-737); GST (C); made in house
T1 sequence (O14920 1-737): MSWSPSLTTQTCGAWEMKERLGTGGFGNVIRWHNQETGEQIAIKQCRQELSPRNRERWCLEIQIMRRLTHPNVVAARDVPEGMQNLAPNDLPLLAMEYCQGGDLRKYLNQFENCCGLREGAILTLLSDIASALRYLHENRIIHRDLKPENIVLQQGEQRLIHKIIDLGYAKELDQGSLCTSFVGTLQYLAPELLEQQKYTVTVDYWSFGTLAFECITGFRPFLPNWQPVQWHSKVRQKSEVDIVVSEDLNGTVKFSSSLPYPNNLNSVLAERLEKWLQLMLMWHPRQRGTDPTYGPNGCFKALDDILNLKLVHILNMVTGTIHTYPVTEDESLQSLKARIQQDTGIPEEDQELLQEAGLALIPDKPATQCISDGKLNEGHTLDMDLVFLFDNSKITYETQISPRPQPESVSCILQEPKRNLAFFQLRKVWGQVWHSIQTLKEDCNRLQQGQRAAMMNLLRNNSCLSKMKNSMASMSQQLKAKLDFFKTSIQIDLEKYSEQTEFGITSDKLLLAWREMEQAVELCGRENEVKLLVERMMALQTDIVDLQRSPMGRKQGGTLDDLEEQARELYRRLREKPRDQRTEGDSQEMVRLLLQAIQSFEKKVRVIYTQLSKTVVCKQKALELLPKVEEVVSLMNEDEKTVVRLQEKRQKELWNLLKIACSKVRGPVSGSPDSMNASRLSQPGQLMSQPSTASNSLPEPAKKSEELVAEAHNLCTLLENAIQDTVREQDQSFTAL
As to the kind of experiment: IKK2 assay (TR-FRET). It is filed as biochemical. Particulars: ATP 1 μM final, read-out: pIC50 against IKK2 (converted). In short, it runs like this:
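TR-FRET readout (665 nm over 620 nm Eu reference) of GST-IB Ser32/36 phosphorylation after 60 min detection. Reaction: 1 μM ATP, 25 nM substrate, 0.5-5 nM GST-fused IKKβ 1-737 from baculovirus, pH 7.4 HEPES buffer, 1.7% DMSO, 15 min room temperature, EDTA-terminated.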

In the case of `CCCNCc1cc(-c2cc(C(N)=O)c3[nH]cc(C4CCN(S(=O)(=O)CC)CC4)c3c2)cs1` [Example 106, 3-[1-(ethylsulfonyl)-4-piperidinyl]-5-{5-[(propylamino)methyl]-3-thienyl}-1H-indole-7-carboxamide trifluoroacetate], the pIC50 in test [1] was not below 5.82. Besides, the IC50 in test [2] was not above 10 µM.
Take `CCN(CC)Cc1cc(-c2cc(C(N)=O)c3[nH]cc(C4CCN(S(=O)(=O)CC)CC4)c3c2)cs1` [Example 107, 5-{5-[(diethylamino)methyl]-3-thienyl}-3-[1-(ethylsulfonyl)-4-piperidinyl]-1H-indole-7-carboxamide trifluoroacetate]: the pIC50 in test [1] is not below 5.82. The IC50 in test [2] was not above 10 µM.
In the case of `CCS(=O)(=O)N1CCC(c2c[nH]c3c(C(N)=O)cc(-c4csc(CN5[C@H](C)CC[C@H]5C)c4)cc23)CC1` [Example 108, 5-(5-{[(2R,5R)-2,5-dimethyl-1-pyrrolidinyl]methyl}-3-thienyl)-3-[1-(ethylsulfonyl)-4-piperidinyl]-1H-indole-7-carboxamide trifluoroacetate], the pIC50 in test [1] was not below 5.82. For the same molecule, in test [2], the IC50 was not above 10 µM.
The molecule `CCS(=O)(=O)N1CCC(c2c[nH]c3c(C(N)=O)cc(-c4csc(CNC5CC5)c4)cc23)CC1` [Example 109, 5-{5-[(cyclopropylamino)methyl]-3-thienyl}-3-[1-(ethylsulfonyl)-4-piperidinyl]-1H-indole-7-carboxamide trifluoroacetate] had a pIC50 in test [1] not below 5.82. The IC50 in test [2] was not above 10 µM.
The corresponding values for `CCS(=O)(=O)N1CCC(c2c[nH]c3c(C(N)=O)cc(-c4csc(CNC5CCC5)c4)cc23)CC1` [Example 110, 5-{5-[(cyclobutylamino)methyl]-3-thienyl}-3-[1-(ethylsulfonyl)-4-piperidinyl]-1H-indole-7-carboxamide trifluoroacetate] are not below 5.82 and not above 10 µM.
`CCS(=O)(=O)N1CCC(c2c[nH]c3c(C(N)=O)cc(-c4csc(CN(C)C)c4)cc23)CC1` [Example 111, 5-{5-[(dimethylamino)methyl]-3-thienyl}-3-[1-(ethylsulfonyl)-4-piperidinyl]-1H-indole-7-carboxamide trifluoroacetate] showed a pIC50 in test [1] not below 5.82. In test [2], the IC50 was not above 10 µM.
Molecule `CCS(=O)(=O)N1CCC(c2c[nH]c3c(C(N)=O)cc(-c4csc(CNCC5CCCC5)c4)cc23)CC1` [Example 112, 5-(5-{[(cyclopentylmethyl)amino]methyl}-3-thienyl)-3-[1-(ethylsulfonyl)-4-piperidinyl]-1H-indole-7-carboxamide trifluoroacetate] had a pIC50 in test [1] not below 5.82. Also, in test [2], the IC50 is not above 10 µM.
Take `CCS(=O)(=O)N1CCC(c2c[nH]c3c(C(N)=O)cc(-c4csc(CN[C@H](C)C(C)C)c4)cc23)CC1` [Example 113, 5-[5-({[(1R)-1,2-dimethylpropyl]amino}methyl)-3-thienyl]-3-[1-(ethylsulfonyl)-4-piperidinyl]-1H-indole-7-carboxamide trifluoroacetate]: in test [1], the pIC50 was not below 5.82. Further, in test [2], the IC50 was not above 10 µM.
On to `CCS(=O)(=O)N1CCC(c2c[nH]c3c(C(N)=O)cc(-c4csc(CNC5CCCC5)c4)cc23)CC1` [Example 114, 5-{5-[(cyclopentylamino)methyl]-3-thienyl}-3-[1-(ethylsulfonyl)-4-piperidinyl]-1H-indole-7-carboxamide trifluoroacetate], for which the pIC50 in test [1] is not below 5.82. Further, in test [2], the IC50 was not above 10 µM.
Regarding `CCS(=O)(=O)N1CCC(c2c[nH]c3c(C(N)=O)cc(-c4csc(CNCC5CC5)c4)cc23)CC1` [Example 115, 5-(5-{[(cyclopropylmethyl)amino]methyl}-3-thienyl)-3-[1-(ethylsulfonyl)-4-piperidinyl]-1H-indole-7-carboxamide trifluoroacetate], in test [1], the pIC50 was not below 5.82. Also, the IC50 in test [2] was not above 10 µM.
With `CCS(=O)(=O)N1CCC(c2c[nH]c3c(C(N)=O)cc(-c4csc(CN[C@@H](C)C(C)C)c4)cc23)CC1` [Example 116, 5-[5-({[(1S)-1,2-dimethylpropyl]amino}methyl)-3-thienyl]-3-[1-(ethylsulfonyl)-4-piperidinyl]-1H-indole-7-carboxamide trifluoroacetate], in test [1], the pIC50 is not below 5.82. Moreover, the IC50 in test [2] was not above 10 µM.
The like results for `CCS(=O)(=O)N1CCC(c2c[nH]c3c(C(N)=O)cc(-c4csc(CNCc5ccccc5)c4)cc23)CC1` [Example 118, 3-[1-(ethylsulfonyl)-4-piperidinyl]-5-(5-{[(phenylmethyl)amino]methyl}-3-thienyl)-1H-indole-7-carboxamide trifluoroacetate] were, in that order, less than 6.00 and not above 10 µM.
The like results for `CCS(=O)(=O)N1CCC(c2c[nH]c3c(C(N)=O)cc(-c4csc(CNC[C@@H]5CCCO5)c4)cc23)CC1` [Example 119, 3-[1-(ethylsulfonyl)-4-piperidinyl]-5-[5-({[(2S)-tetrahydro-2-furanylmethyl]amino}methyl)-3-thienyl]-1H-indole-7-carboxamide trifluoroacetate] were, in that order, not below 5.82 and not above 10 µM.
Consider `CCS(=O)(=O)N1CCC(c2c[nH]c3c(C(N)=O)cc(-c4csc(CNCC5CCOCC5)c4)cc23)CC1` [Example 120, 3-[1-(ethylsulfonyl)-4-piperidinyl]-5-(5-{[(tetrahydro-2H-pyran-4-ylmethyl)amino]methyl}-3-thienyl)-1H-indole-7-carboxamide trifluoroacetate], for which, in test [1], the pIC50 was not below 5.82. In addition, the IC50 in test [2] is not above 10 µM.
The like results for `CCCCNCc1cc(-c2cc(C(N)=O)c3[nH]cc(C4CCN(S(=O)(=O)CC)CC4)c3c2)cs1` [Example 121, 5-{5-[(butylamino)methyl]-3-thienyl}-3-[1-(ethylsulfonyl)-4-piperidinyl]-1H-indole-7-carboxamide trifluoroacetate] were, in that order, not below 5.82 and not above 10 µM.
The like results for `CCS(=O)(=O)N1CCC(c2c[nH]c3c(C(N)=O)cc(-c4csc(CN5CCC[C@@H]5COC)c4)cc23)CC1` [Example 124, 3-[1-(ethylsulfonyl)-4-piperidinyl]-5-[5-({(2R)-2-[(methyloxy)methyl]-1-pyrrolidinyl}methyl)-3-thienyl]-1H-indole-7-carboxamide trifluoroacetate] were, in that order, not below 5.82 and not above 10 µM.
`CCS(=O)(=O)N1CCC(c2c[nH]c3c(C(N)=O)cc(-c4ccc(CCNC)cc4)cc23)CC1` [Example 125, 3-[1-(ethylsulfonyl)-4-piperidinyl]-5-{4-[2-(methylamino)ethyl]phenyl}-1H-indole-7-carboxamide] gave a pIC50 in test [1] not below 5.82. Further, the IC50 in test [2] was not above 10 µM.
`CCCNCCc1ccc(-c2cc(C(N)=O)c3[nH]cc(C4CCN(S(=O)(=O)CC)CC4)c3c2)cc1` [Example 126, 3-[1-(ethylsulfonyl)-4-piperidinyl]-5-{4-[2-(propylamino)ethyl]phenyl}-1H-indole-7-carboxamide]: the pIC50 in test [1] is not below 5.82. Further, the IC50 in test [2] is not above 10 µM.
As for `CCNCCc1ccc(-c2cc(C(N)=O)c3[nH]cc(C4CCN(S(=O)(=O)CC)CC4)c3c2)cc1` [Example 127, 5-{4-[2-(ethylamino)ethyl]phenyl}-3-[1-(ethylsulfonyl)-4-piperidinyl]-1H-indole-7-carboxamide], in test [1], the pIC50 is not below 5.82. The IC50 in test [2] was not above 10 µM.
The corresponding values for `CCS(=O)(=O)N1CCC(c2c[nH]c3c(C(N)=O)cc(-c4ccc(CNC(=O)c5cc(C)nn5C(C)(C)C)cc4)cc23)CC1` [Example 128, 5-{4-[({[1-(1,1-dimethylethyl)-3-methyl-1H-pyrazol-5-yl]carbonyl}amino)methyl]phenyl}-3-[1-(ethylsulfonyl)-4-piperidinyl]-1H-indole-7-carboxamide trifluoroacetate] are less than 6.00 and not above 10 µM.
On to `CCS(=O)(=O)N1CCC(c2c[nH]c3c(C(N)=O)cc(-c4ccc(CNC(=O)c5ccncc5)cc4)cc23)CC1` [Example 129, 3-[1-(ethylsulfonyl)-4-piperidinyl]-5-(4-{[(4-pyridinylcarbonyl)amino]methyl}phenyl)-1H-indole-7-carboxamide], for which, in test [1], the pIC50 was not below 5.82. Further, the IC50 in test [2] is not above 10 µM.

As a reminder, the pIC50 is the negative decadic logarithm of the IC50, by convention in mol/L.
